Patent US4731376A, “2-(-(2,2,5,5-tetramethyl-3-pyrrolin-3-carbonyl))-amino derivatives” (Alkaloida Vegyeszeti Gyar, priority 1983, dated 1988)

Tests used:
[1] = system: aconitin arrhythmia; assay: aconitin arrhythmia model on rats (time to ventricular extrasystole, tachycardia, fibrillation; ED125, ED150); assay type: in vivo, Wistar rats; settings: for ED125 / ED150: Rattus norvegicus, iv, 95% confidence limits on the next line; for ED125: infusion time to extrasystol 7.6 (control 6.1 minutes), read-out: ED125 (delay of chamber extrasystol); for ED150: infusion time to extrasystol 9.2 (control 6.1 minutes), read-out: ED150 (delay of chamber extrasystol); for time to chamber extrasystol, aconitin infusion / time to chamber tachycardia, aconitin infusion / time to fibrillation, aconitin infusion: 5 minutes before aconitin infusion, X ± S.E.M.
Experimental: Wistar rats (200-220 g) are narcotized with urethane. The vena jugularis is connected with a polyethylene catheter. Using standard EKG-II leads, a control EKG is taken. The test substance and the physiological saline solution used as control are intravenously administered 5 minutes before the aconitin infusion. The aconitin solution is continuous administered at a dose of 5 mg/kg at a rate of 0.1 ml (100 g/minute) as an infusion into the vena jugularis. The progress is monitored by the EKG isoelectric line.
During the test the time to formation of the ventricular extrasystole, ventricular tachycardia and fibrillation were determined.
On the basis of the late occurrence of the ventricula extrasystole, ED125 and ED150 values were determined.

[2] = system: mice; assay: acute toxicity on mice (LD50, Litchfield-Wilcoxon, after a week); assay type: in vivo; settings: i.v., 95% confidence limits on the next line, 10080 min
Experimental: (§1) On the basis of the late occurrence of the ventricula extrasystole, ED125 and ED150 values were determined. The acute toxicities were determined on mice (CELP strain and the LD50 value was calculated after a week using the Litchfield-Wilcoxon method. The antiarrhythmically effective dosage or the LD50 value for several compounds of the various compound types are collected in Table III.

[3] = as above; assay type: in vivo; settings: mouse, in vivo, iv, 95% confidence limits on the next line
Experimental: as §1

CC1(C)C=C(C(=O)NC(c2ccccc2)c2ccccc2)C(C)(C)N1 [Compound 6]
ED125 [1]: 5.4 mg/kg | ED150 [1]: 23.1 mg/kg | LD50 (acute toxicity) [2]: 63 mg/kg

Cc1cccc(C)c1OCC(C)NC(=O)C1=CC(C)(C)NC1(C)C (stereo not shown) [Compound 9, 2-[N(2,2,5,5-tetramethyl-2,5-dihydro-3-pyrroline-3-carbonyl)]-3-(2,6-dimethyl-phenoxy)-aminopropane]
time to chamber extrasystol, aconitin infusion ([1]; 0.5 mg/kg i.v.): 7.2 ± 0.06 min | time to chamber tachycardia, aconitin infusion ([1]; 0.5 mg/kg i.v.): 11.1 ± 0.68 min | time to fibrillation, aconitin infusion ([1]; 0.5 mg/kg i.v.): 14.6 ± 0.48 min | time to chamber extrasystol, aconitin infusion ([1]; 1.0 mg/kg i.v.): 9.2 ± 0.10 min | time to chamber tachycardia, aconitin infusion ([1]; 1.0 mg/kg i.v.): 15.3 ± 0.29 min | time to fibrillation, aconitin infusion ([1]; 1.0 mg/kg i.v.): 20.9 ± 0.50 min | time to chamber extrasystol, aconitin infusion ([1]; 2.0 mg/kg i.v.): 13.2 ± 1.21 min | time to chamber tachycardia, aconitin infusion ([1]; 2.0 mg/kg i.v.): 18.9 ± 0.13 min | time to fibrillation, aconitin infusion ([1]; 2.0 mg/kg i.v.): 24.6 ± 0.79 min | ED125 [1]: 0.6 mg/kg | ED150 [1]: 0.9 mg/kg | LD50 (acute toxicity) [2]: 11 mg/kg

Cc1cccc(C)c1OCC(C)NC(=O)C1CC(C)(C)NC1(C)C (stereo not shown) [Compound 11, 2-[N-(2,2,5,5-tetramethyl-3-pyrrolidine-3-carbonyl)]-3-(2,6-dimethyl-phenoxy)-amino propane]
time to chamber extrasystol, aconitin infusion ([1]; 0.25 mg/kg i.v.): 7.6 ± 0.24 min | time to chamber tachycardia, aconitin infusion ([1]; 0.25 mg/kg i.v.): 11.3 ± 0.88 min | time to fibrillation, aconitin infusion ([1]; 0.25 mg/kg i.v.): 15.9 ± 0.49 min | time to chamber extrasystol, aconitin infusion ([1]; 0.5 mg/kg i.v.): 9.9 ± 0.40 min | time to chamber tachycardia, aconitin infusion ([1]; 0.5 mg/kg i.v.): 15.3 ± 0.52 min | time to fibrillation, aconitin infusion ([1]; 0.5 mg/kg i.v.): 19.1 ± 0.89 min | time to chamber extrasystol, aconitin infusion ([1]; 1.0 mg/kg i.v.): 13.2 ± 1.29 min | time to chamber tachycardia, aconitin infusion ([1]; 1.0 mg/kg i.v.): 19.3 ± 1.24 min | time to fibrillation, aconitin infusion ([1]; 1.0 mg/kg i.v.): 23.5 ± 0.42 min | ED125 [1]: 0.26 mg/kg | ED150 [1]: 0.39 mg/kg | LD50 at 168 h [3]: 1.96 mg/kg

Cc1cccc(C)c1NC(=O)CNC(=O)C1=CC(C)(C)NC1(C)C [Compound 19]
time to chamber extrasystol, aconitin infusion ([1]; 1.0 mg/kg i.v.): 6.6 min | time to chamber tachycardia, aconitin infusion ([1]; 1.0 mg/kg i.v.): 10.4 ± 2.58 min | time to fibrillation, aconitin infusion ([1]; 1.0 mg/kg i.v.): 15.1 ± 0.70 min | time to chamber extrasystol, aconitin infusion ([1]; 4.0 mg/kg i.v.): 9.8 ± 0.34 min | time to chamber tachycardia, aconitin infusion ([1]; 4.0 mg/kg i.v.): 16.1 ± 2.62 min | time to fibrillation, aconitin infusion ([1]; 4.0 mg/kg i.v.): 17.4 ± 1.22 min | time to chamber extrasystol, aconitin infusion ([1]; 8.0 mg/kg i.v.): 13.8 ± 0.35 min | time to chamber tachycardia, aconitin infusion ([1]; 8.0 mg/kg i.v.): 27.0 ± 1.10 min | time to fibrillation, aconitin infusion ([1]; 8.0 mg/kg i.v.): 30.6 ± 1.72 min | ED125 [1]: 1.53 mg/kg | ED150 [1]: 2.44 mg/kg | LD50 (acute toxicity) [2]: 53 mg/kg

Cc1cccc(C)c1NC(=O)C(C)NC(=O)C1=CC(C)(C)NC1(C)C (stereo not shown) [Compound 20]
time to chamber extrasystol, aconitin infusion ([1]; 1.0 mg/kg i.v.): 7.1 ± 0.49 min | time to chamber tachycardia, aconitin infusion ([1]; 1.0 mg/kg i.v.): 12.3 ± 0.42 min | time to fibrillation, aconitin infusion ([1]; 1.0 mg/kg i.v.): 15.5 ± 0.59 min | time to chamber extrasystol, aconitin infusion ([1]; 2.0 mg/kg i.v.): 9.2 ± 0.65 min | time to chamber tachycardia, aconitin infusion ([1]; 2.0 mg/kg i.v.): 15.1 ± 0.22 min | time to fibrillation, aconitin infusion ([1]; 2.0 mg/kg i.v.): 19.5 ± 0.54 min | time to chamber extrasystol, aconitin infusion ([1]; 4.0 mg/kg i.v.): 11.7 ± 0.50 min | time to chamber tachycardia, aconitin infusion ([1]; 4.0 mg/kg i.v.): 18.4 ± 0.75 min | time to fibrillation, aconitin infusion ([1]; 4.0 mg/kg i.v.): 23.5 ± 1.63 min | ED125 [1]: 1.21 mg/kg | ED150 [1]: 1.91 mg/kg | LD50 (acute toxicity) [2]: 15 mg/kg

C=CC1CN2CCC1CC2C(O)c1ccnc2ccc(OC)cc12 (stereo not shown) [chinidin, reference compound]
time to chamber extrasystol, aconitin infusion ([1]; 5.0 mg/kg i.v.): 6.9 ± 0.06 min | time to chamber tachycardia, aconitin infusion ([1]; 5.0 mg/kg i.v.): 10.4 ± 0.45 min | time to fibrillation, aconitin infusion ([1]; 5.0 mg/kg i.v.): 13.7 ± 0.44 min | time to chamber extrasystol, aconitin infusion ([1]; 10.0 mg/kg i.v.): 8.4 ± 0.42 min | time to chamber tachycardia, aconitin infusion ([1]; 20.0 mg/kg i.v.): 15.7 ± 0.48 min | time to fibrillation, aconitin infusion ([1]; 20.0 mg/kg i.v.): 18.1 ± 0.22 min | ED125 [1]: 6.75 mg/kg
